From patent publication US8741897B2, “Glucocorticoid mimetics, methods of making them, pharmaceutical compositions and uses thereof” (Boehringer Ingelheim Pharmaceuticals Inc., priority 2003, dated 2014)

Tested on: glucocorticoid receptor function
Test: one or more of the above assays (GR binding and glucocorticoid receptor cell assays: aromatase, IL-6, TAT, MMTV-Luc, IL-8, ICAM-Luc)
Type: cell-based
Settings: assay not specified per compound

In the case of `Cc1nccc2[nH]c(CC(O)(CC(C)(C)c3cc(-c4ccccc4)ccc3O)C(F)(F)F)cc12` (stereo not shown) [3-[4,4,4-Trifluoro-3-hydroxy-1,1-dimethyl-3-(4-methyl-1H-pyrrolo[3,2-c]pyridin-2-ylmethyl)butyl]biphenyl-4-ol], the “activity as agonists of the glucocorticoid receptor function in one or more of the above assays” value (from here on “activity as agonists”) is reported as “potent agonists”.

With `Cc1ccc(F)cc1C(C)(C)CC(O)(Cc1cc2nc(-c3ccccc3)ncc2[nH]1)C(F)(F)F` (stereo not shown) [1,1,1-Trifluoro-4-(5-fluoro-2-methylphenyl)-4-methyl-2-(2-phenyl-5H-pyrrolo[3,2-d]pyrimidin-6-ylmethyl)pentan-2-ol] the “activity as agonists” value was “potent agonists”.

With `CC(C)(CC(O)(Cn1ccc2c1CCCC2=O)C(F)(F)F)c1cc(-c2cncnc2)ccc1O` (stereo not shown) [1-[2-Hydroxy-4-(2-hydroxy-5-pyrimidin-5-ylphenyl)-4-methyl-2-trifluoromethylpentyl]-1,5,6,7-tetrahydroindol-4-one] the “activity as agonists” value was “agonists”.

In the case of `COc1ccc(-c2ccsc2)cc1C(C)(C)CC(O)(Cc1cc2cc(OC(C)C)ncc2[nH]1)C(F)(F)F` (stereo not shown) [1,1,1-Trifluoro-2-(5-isopropoxy-1H-pyrrolo[2,3-c]pyridin-2-ylmethyl)-4-(2-methoxy-5-thiophen-3-ylphenyl)-4-methylpentan-2-ol], the “activity as agonists” value is reported as “potent agonists”.

With `Cc1ccc(F)cc1C(C)(C)CC(O)(Cc1cc2ccncc2[nH]1)C(C)(C)C` (stereo not shown) [5-(5-Fluoro-2-methylphenyl)-2,2,5-trimethyl-3-(1H-pyrrolo[2,3-c]pyridin-2-ylmethyl)hexan-3-ol] the “activity as agonists” value was “agonists”.

In the case of `Cc1nccc2[nH]c(CC(O)(CC(C)(C)c3cc(-c4ccsc4)ccc3O)C(F)(F)F)cc12` (stereo not shown) [4-Thiophen-3-yl-2-[4,4,4-trifluoro-3-hydroxy-1,1-dimethyl-3-(4-methyl-1H-pyrrolo[3,2-c]pyridin-2-ylmethyl)butyl]phenol], the “activity as agonists” value is reported as “potent agonists”.

In the case of `COc1nccc2[nH]c(CC(O)(CC(C)(C)c3cc(F)ccc3C)C(F)(F)F)cc12` (stereo not shown) [1,1,1-Trifluoro-4-(5-fluoro-2-methylphenyl)-2-(4-methoxy-1H-pyrrolo[3,2-c]pyridin-2-ylmethyl)-4-methylpentan-2-ol], the “activity as agonists” value is reported as “potent agonists”.

With `CC(C)(CC(O)(Cc1cc2cnccc2[nH]1)C(F)(F)F)c1cccc(CN2CCOCC2)c1` (stereo not shown) [1,1,1-Trifluoro-4-methyl-4-(3-morpholin-4-ylmethylphenyl)-2-(1H-pyrrolo[3,2-c]pyridin-2-ylmethyl)pentan-2-ol] the “activity as agonists” value was “potent agonists”.

`CC(C)(CC(O)(Cc1cc2ccncc2[nH]1)C(F)(F)F)c1cccc(CN2CCOCC2)c1` (stereo not shown) [1,1,1-Trifluoro-4-methyl-4-(3-morpholin-4-ylmethylphenyl)-2-(1H-pyrrolo[2,3-c]pyridin-2-ylmethyl)pentan-2-ol] was tested, and the “activity as agonists” value was “potent agonists”.

With `COc1cc(F)ccc1C(C)(C)CC(O)(Cc1[nH]c2cnccc2c1C)C(F)(F)F` (stereo not shown) [1,1,1-Trifluoro-4-(4-fluoro-2-methoxyphenyl)-4-methyl-2-(3-methyl-1H-pyrrolo[2,3-c]pyridin-2-ylmethyl)pentan-2-ol] the “activity as agonists” value was “potent agonists”.

With `CC(C)C(O)(Cc1cc2cnccc2[nH]1)CC(C)(C)c1cc(Cl)cc2c1OCC2` (stereo not shown) [5-(5-Chloro-2,3-dihydrobenzofuran-7-yl)-2,5-dimethyl-3-(1H-pyrrolo[3,2-c]pyridin-2-ylmethyl)hexan-3-ol] the “activity as agonists” value was “agonists”.

For `CC(C)(CC(O)(Cc1cc2nc(-c3ccccc3)ncc2[nH]1)C(F)(F)F)c1cc(F)ccc1O` (stereo not shown) [4-Fluoro-2-[4,4,4-trifluoro-3-hydroxy-1,1-dimethyl-3-(2-phenyl-5H-pyrrolo[3,2-d]pyrimidin-6-ylmethyl)butyl]phenol], the “activity as agonists” value was “potent agonists”.

With `Cc1cc(C#N)cc2[nH]c(CC(O)(CC(C)(C)c3cc(S(C)(=O)=O)cc4c3OCC4)C(F)F)cc12` (stereo not shown) [2-[2-Difluoromethyl-2-hydroxy-4-(5-methanesulfonyl-2,3-dihydrobenzofuran-7-yl)-4-methylpentyl]-4-methyl-1H-indole-6-carbonitrile] the “activity as agonists” value was “agonists”.

For `CC(C)(CC(O)(Cn1ccc2c1CCCC2=O)C(F)(F)F)c1cccc2c1OCC2` (stereo not shown) [1-[4-(2,3-Dihydrobenzofuran-7-yl)-2-hydroxy-4-methyl-2-trifluoromethylpentyl]-1,5,6,7-tetrahydroindol-4-one], the “activity as agonists” value was “agonists”.

In the case of `CC(C)(CC(O)(Cc1cc2ncncc2[nH]1)C(F)(F)F)c1ccc(F)cc1O` (stereo not shown) [5-Fluoro-2-[4,4,4-trifluoro-3-hydroxy-1,1-dimethyl-3-(5H-pyrrolo[3,2-d]pyrimidin-6-ylmethyl)butyl]phenol], the “activity as agonists” value is reported as “potent agonists”.

With `CC(C)(CC(O)(Cc1cc2cc(-c3ccccc3)nnc2[nH]1)C(F)(F)F)c1cccc(F)c1` (stereo not shown) [1,1,1-Trifluoro-4-(3-fluorophenyl)-4-methyl-2-(3-phenyl-7H-pyrrolo[2,3-c]pyridazin-6-ylmethyl)pentan-2-ol] the “activity as agonists” value was “potent agonists”.

In the case of `Cc1ccc(F)cc1C(C)(C)CC(O)(Cc1cc2[nH]c(=O)ccc2[nH]1)C(F)(F)F` (stereo not shown) [2-[4-(5-Fluoro-2-methylphenyl)-2-hydroxy-4-methyl-2-trifluoromethylpentyl]-1,4-dihydropyrrolo[3,2-b]pyridin-5-one], the “activity as agonists” value is reported as “potent agonists”.

With `COc1ccc(F)cc1C(C)(C)CC(O)(Cc1cc2cc(N(C)C)ncc2[nH]1)C(F)(F)F` (stereo not shown) [2-(5-Dimethylamino-1H-pyrrolo[2,3-c]pyridin-2-ylmethyl)-1,1,1-trifluoro-4-(5-fluoro-2-methoxyphenyl)-4-methylpentan-2-ol] the “activity as agonists” value was “potent agonists”.

In the case of `CC(C)(CC(O)(Cc1cc2nc(N3CCCC3)ncc2[nH]1)C(F)(F)F)c1cc(F)ccc1O` (stereo not shown) [4-Fluoro-2-[4,4,4-trifluoro-3-hydroxy-1,1-dimethyl-3-(2-pyrrolidin-1-yl-5H-pyrrolo[3,2-d]pyrimidin-6-ylmethyl)butyl]phenol], the “activity as agonists” value is reported as “potent agonists”.

`CC(C)(CC(O)(Cc1cc2cnccc2[nH]1)C(C)(C)C)c1cc(Cl)cc2c1OCC2` (stereo not shown) [5-(5-Chloro-2,3-dihydrobenzofuran-7-yl)-2,2,5-trimethyl-3-(1H-pyrrolo[3,2-c]pyridin-2-ylmethyl)hexan-3-ol] was tested, and the “activity as agonists” value was “agonists”.

`CC(C)(CC(O)(Cn1ccc2ncccc21)C(F)F)c1cc(Cl)cc2c1OCC2` (stereo not shown) [4-(5-Chloro-2,3-dihydrobenzofuran-7-yl)-1,1-difluoro-4-methyl-2-pyrrolo[3,2-b]pyridin-1-ylmethylpentan-2-ol] was tested, and the “activity as agonists” value was “agonists”.

In the case of `CCc1cccc2[nH]c(CC(O)(CC(C)(C)c3cc(F)ccc3OC)C(F)(F)F)cc12` (stereo not shown) [2-(4-Ethyl-1H-indol-2-ylmethyl)-1,1,1-trifluoro-4-(5-fluoro-2-methoxyphenyl)-4-methylpentan-2-ol], the “activity as agonists” value is reported as “potent agonists”.

`Cc1ccc(F)cc1C(C)(C)CC(O)(Cc1cc2cnccc2[nH]1)C(C)(C)C` (stereo not shown) [5-(5-Fluoro-2-methylphenyl)-2,2,5-trimethyl-3-(1H-pyrrolo[3,2-c]pyridin-2-ylmethyl)hexan-3-ol] was tested, and the “activity as agonists” value was “agonists”.

For `COc1ccc(F)cc1C(C)(C)CC(O)(Cc1cc2ccncc2[nH]1)C(F)F` (stereo not shown) [1,1-Difluoro-4-(5-fluoro-2-methoxyphenyl)-4-methyl-2-(1H-pyrrolo[2,3-c]pyridin-2-ylmethyl)pentan-2-ol], the “activity as agonists” value was “agonists”.

With `CC(C)c1ncc2[nH]c(CC(O)(CC(C)(C)c3cc(Cl)cc4c3OCC4)C(F)(F)F)cc2n1` (stereo not shown) [4-(5-Chloro-2,3-dihydrobenzofuran-7-yl)-1,1,1-trifluoro-2-(2-isopropyl-5H-pyrrolo[3,2-d]pyrimidin-6-ylmethyl)-4-methylpentan-2-ol] the “activity as agonists” value was “potent agonists”.

`CC(C)(CC(O)(Cc1cc2cc(C#N)ccc2[nH]1)C(F)(F)F)c1cc(S(C)(=O)=O)cc2c1OCC2` (stereo not shown) [2-[2-Hydroxy-4-(5-methanesulfonyl-2,3-dihydrobenzofuran-7-yl)-4-methyl-2-trifluoromethylpentyl]-1H-indole-5-carbonitrile] was tested, and the “activity as agonists” value was “potent agonists”.

`CC(CO)(CC(O)(Cc1ccnc2ccccc12)C(F)(F)F)c1ccccc1` (stereo not shown) [5,5,5-Trifluoro-2-methyl-2-phenyl-4-quinolin-4-ylmethylpentane-1,4-diol] was tested, and the “activity as agonists” value was “agonists”.

For `COc1ccc(-c2ccsc2)cc1C(C)(C)CC(O)(Cc1cc2cc(Cl)ncc2[nH]1)C(F)(F)F` (stereo not shown) [2-(5-Chloro-1H-pyrrolo[2,3-c]pyridin-2-ylmethyl)-1,1,1-trifluoro-4-(2-methoxy-5-thiophen-3-ylphenyl)-4-methylpentan-2-ol], the “activity as agonists” value was “potent agonists”.

With `COc1cc(F)ccc1C(C)(C)CC(O)(Cc1cc2cc(N(C)C)ncc2[nH]1)C(F)(F)F` (stereo not shown) [2-(5-Dimethylamino-1H-pyrrolo[2,3-c]pyridin-2-ylmethyl)-1,1,1-trifluoro-4-(4-fluoro-2-methoxyphenyl)-4-methylpentan-2-ol] the “activity as agonists” value was “potent agonists”.

For `COc1ccc(Br)cc1C(C)(C)CC(O)(Cc1cc2cc(Cl)ncc2[nH]1)C(F)(F)F` (stereo not shown) [4-(5-Bromo-2-methoxyphenyl)-2-(5-chloro-1H-pyrrolo[2,3-c]pyridin-2-ylmethyl)-1,1,1-trifluoro-4-methylpentan-2-ol], the “activity as agonists” value was “potent agonists”.

`Cc1ccc(F)cc1C(C)(C)CC(O)(Cc1cc2cc(-c3ccccc3)nnc2[nH]1)C(F)(F)F` (stereo not shown) was tested, and the “activity as agonists” value was “potent agonists”.
